From patent US6686469B2, “Pesticidal pyrimidine-derivatives” (Novartis Animal Health US, Inc., priority 1999, dated 2004)

test system: not given; assay: not given; details: not given

Row | Compound | melting point [°C]
1 | Fc1cccc(F)c1-c1nccc(-c2ccc(-c3ccc(-c4ccccc4)cc3)cc2)n1 [Compound 2.7] | 258 to 259
2 | Fc1ccc(-c2ccc(-c3cnc(-c4c(F)cccc4Cl)nc3)cc2)cc1Cl [Compound 1.11] | 186 to 189
3 | CCOc1nc(-c2c(F)cccc2F)ncc1-c1ccc(-c2cc(Cl)cc(Cl)c2)cc1 [Compound 1.60] | 154 to 155
4 | Clc1ccc(-c2ccc(-c3cnc(-c4c(Cl)cccc4Cl)nc3)cc2)cc1 [Compound 1.8] | 205 to 220
5 | Fc1cccc(Cl)c1-c1ncc(-c2ccc(-c3ccc(Cl)c(Cl)c3)cc2)cn1 [Compound 1.13] | 196 to 199
6 | CCSc1nc(-c2c(F)cccc2F)ncc1-c1ccc(-c2ccc(OC(F)(F)F)cc2)cc1 [Compound 1.72] | 127 to 128
7 | Fc1cccc(F)c1C1N=CC=C(c2ccc(Br)cc2)N1Cl (stereo not drawn) [Compound 3.354, 4-(4-bromophenyl)-2-(2,6-difluorophenyl)-3-chloropyrimidine] | 146 to 148
8 | FC(F)(F)Oc1ccc(-c2ccc(-c3cnc(-c4c(Cl)cccc4Cl)nc3)cc2)cc1 [Compound 1.4] | 179 to 181
9 | FC(F)(F)c1ccc(-c2ccc(-c3cnc(-c4c(Cl)cccc4Cl)nc3)cc2)cc1 [Compound 1.3] | 207 to 208
10 | Fc1cccc(F)c1-c1nccc(-c2ccc(-c3ccc(Cl)c(Cl)c3)cc2)n1 [Compound 2.6] | 134 to 140
11 | CC(C)(C)c1ccc(-c2ccc(-c3cnc(-c4c(Cl)cccc4Cl)nc3)cc2)cc1 [Compound 1.10] | 200 to 202
12 | Fc1cccc(F)c1-c1nccc(-c2ccc(-c3cccc(Cl)c3)cc2)n1 [Compound 2.10] | 82 to 83
13 | Fc1ccc(-c2ccc(-c3ccnc(-c4c(F)cccc4F)n3)cc2)cc1Cl [Compound 2.1] | 133 to 134
14 | COc1ccc(-c2ccc(-c3cnc(-c4c(Cl)cccc4Cl)nc3)cc2)cc1 [Compound 1.7] | 242 to 244
15 | Clc1ccc(-c2ccc(-c3cnc(-c4c(Cl)cccc4Cl)nc3)cc2)cc1Cl [Compound 1.6] | 224 to 226
16 | Clc1cc(Cl)cc(-c2ccc(-c3cnc(-c4c(Cl)cccc4Cl)nc3)cc2)c1 [Compound 1.9] | > 220
17 | CCSc1nc(-c2c(F)cccc2F)ncc1-c1ccc(-c2cc(Cl)cc(Cl)c2)cc1 [Compound 1.74] | 154 to 156
18 | CN(C)c1nc(-c2c(F)cccc2F)ncc1-c1ccc(-c2cc(Cl)cc(Cl)c2)cc1 [Compound 1.71] | 200 to 202
19 | Fc1cccc(F)c1-c1nccc(-c2ccc(-c3ccc(Cl)cc3Cl)cc2)n1 [Compound 2.9] | 86 to 87
20 | Fc1cccc(F)c1-c1nccc(-c2ccc(-c3ccc(OC(F)(F)F)cc3)cc2)n1 [Compound 2.3] | 102 to 103
21 | COc1ccc(-c2ccc(-c3cnc(-c4c(F)cccc4Cl)nc3)cc2)cc1 [Compound 1.15] | 176 to 179
22 | N#CN1C(c2ccc(Br)cc2)=CC=NC1c1c(F)cccc1F (stereo not drawn) [Compound 3.355, 4-(4-bromophenyl)-3-cyano-2-(2,6-difluorophenyl)-pyrimidine] | 146 to 148
23 | Fc1cccc(F)c1-c1nccc(-c2ccc(Br)cc2)n1 [Compound P1.5, 4-(4-bromophenyl)-2-(2,6-difluorophenyl)-pyrimidine] | 130 to 131
24 | CCNc1nc(-c2c(F)cccc2F)ncc1-c1ccc(-c2cc(Cl)cc(Cl)c2)cc1 [Compound 1.68] | 202 to 203
25 | CN(C)c1nc(-c2c(F)cccc2F)ncc1-c1ccc(-c2ccc(OC(F)(F)F)cc2)cc1 [Compound 1.69] | 146 to 147
26 | Fc1cccc(F)c1-c1nccc(-c2ccc(-c3ccc(Cl)cc3)cc2)n1 [Compound 2.11] | 167 to 168
27 | Fc1ccc(-c2ccc(-c3ccnc(-c4c(F)cccc4F)n3)cc2)cc1 [Compound 2.8] | 145 to 146
28 | Fc1cccc(F)c1-c1nccc(-c2ccc(-c3cc(Cl)cc(Cl)c3)cc2)n1 [Compound 2.5] | 116 to 126

Further lines, results first:

Row | melting point [°C] | Compound
29 | 141 to 142 | Fc1cccc(F)c1-c1nccc(-c2ccc(-c3ccc(C(F)(F)F)cc3)cc2)n1 [Compound 2.2, 2-(2,6-difluorophenyl)-4-(4′-trifluoromethylbiphenyl-4-yl)-pyrimidine]
30 | 145 to 146 | CCSc1nc(-c2c(F)cccc2F)ncc1-c1ccc(-c2ccc(C(F)(F)F)cc2)cc1 [Compound 1.73]
31 | 150 to 151 | COc1ccccc1-c1ccc(-c2cnc(-c3c(F)cccc3F)nc2)cc1 [Compound 1.20]
32 | 166 to 168 | CN(C)c1nc(-c2c(F)cccc2F)ncc1-c1ccc(-c2ccc(C(F)(F)F)cc2)cc1 [Compound 1.70]
33 | 252 to 254 | Fc1cccc(F)c1-c1ncc(-c2ccc(-c3ccc(C(F)(F)F)cc3)cc2)cn1 [Compound 1.2]
34 | 220 to 222 | Fc1cccc(F)c1-c1ncc(-c2ccc(-c3ccc(Cl)cc3)cc2)cn1 [Compound 1.25]
35 | 100 to 102 | Fc1cccc(F)c1-c1ncc(-c2ccc(-c3ccccc3C(F)(F)F)cc2)cn1 [Compound 1.24]
36 | 212 to 213 | Fc1ccc(-c2ccc(-c3cnc(-c4c(F)cccc4F)nc3)cc2)cc1 [Compound 1.23]
37 | 217 to 218 | Fc1cccc(F)c1-c1ncc(-c2ccc(-c3cccc(C(F)(F)F)c3)cc2)cn1 [Compound 1.18]
38 | 189 to 190 | CCNc1nc(-c2c(F)cccc2F)ncc1-c1ccc(-c2ccc(C(F)(F)F)cc2)cc1 [Compound 1.67]
39 | 170 to 172 | CCOc1nc(-c2c(F)cccc2F)ncc1-c1ccc(-c2ccc(C(F)(F)F)cc2)cc1 [Compound 1.59]
40 | 179 to 180 | Fc1cccc(F)c1-c1nccc(-c2ccc(-c3ccccc3C(F)(F)F)cc2)n1 [Compound 2.12]
41 | 160 to 163 | Fc1cccc(Cl)c1-c1ncc(-c2ccc(-c3ccc(OC(F)(F)F)cc3)cc2)cn1 [Compound 1.12]
42 | 215 to 216 | Fc1cccc(F)c1-c1ncc(-c2ccc(-c3ccc(OC(F)(F)F)cc3)cc2)cn1 [Compound 1.19, 2-(2,6-difluorophenyl)-5-(4′-trifluoromethoxybiphenyl-4-yl)-pyrimidine]
43 | 146 to 147 | CCOc1nc(-c2c(F)cccc2F)ncc1-c1ccc(-c2ccc(OC(F)(F)F)cc2)cc1 [Compound 1.58]
44 | > 260 | Fc1cccc(F)c1-c1ncc(-c2ccc(-c3ccc(-c4ccccc4)cc3)cc2)cn1 [Compound 1.22]
45 | 187 to 190 | Fc1cccc(Cl)c1-c1ncc(-c2ccc(-c3cccc(C(F)(F)F)c3)cc2)cn1 [Compound 1.14]
46 | 178 to 179 | Fc1cccc(F)c1-c1ncc(-c2ccc(-c3cccc(Cl)c3)cc2)cn1 [Compound 1.37]
47 | 193 to 194 | Fc1cccc(F)c1-c1ncc(-c2ccc(Br)cc2)cn1 [Compound P1.3, 5-(4-bromophenyl)-2-(2,6-difluorophenyl)-pyrimidine]

test system: Heliothis virescens; assay: Activity against Heliothis virescens; assay type: in vivo; details: young soya plants sprayed with 100 ppm active ingredient, first-stage caterpillars, 6 days later
Procedure: Young soya plants are sprayed with an aqueous emulsion spray mixture containing 100 ppm of active ingredient, when the spray coating has dried on they are colonised with 10 caterpillars of the first stage of Heliothis virescens and then placed in a plastic container. The percentage reduction of the population and of the feeding damage (% response) is determined 6 days later by comparing the total number of dead caterpillars and the feeding damage on the treated plants with those on the untreated plants.

Row | Compound | efficacy: percentage reduction of the population and of the feeding damage (% response)
48 | Fc1cccc(Cl)c1-c1ncc(-c2ccc(-c3ccc(C(F)(F)F)cc3)cc2)cn1 [Compound 1.17] | over 80%
